Patent US6844344B2, “Benzofuran derivatives” (Eli Lilly and Company, priority 1999, dated 2005)
Counter-ions that a name gives are not always drawn.

melting point	SMILES
101.2 to 109.5 °C	COc1cccc2sc([C@@H]3CCN(C[C@H](O)COc4cccc5oc(C)cc45)[C@H](C)C3)cc12 (as salt: oxalate) [Example 26, (2S)-(−)-3-[(2R,4R)-4-(4-Methoxybenzo[b]thiophen-2-yl)-2-methylpiperidin-1-yl]-1-(2-methylbenzofuran-4-yl)oxy-2-propanol]
98 °C (dec.)	COc1cccc2sc([C@H]3CCN(C[C@H](O)COc4cccc5oc(C)cc45)[C@@H](C)C3)cc12 (as salt: oxalate) [Example 27, (2S)-(+)-3-[(2S,4S)-4-(4-Methoxybenzo[b]thiophen-2-yl)-2-methylpiperidin-1-yl]-1-(2-methylbenzofuran-4-yl)oxy-2-propanol]
99.2 to 103 °C	COc1cccc2sc([C@@H]3CCN(C[C@H](O)COc4cccc5oc(C)cc45)[C@@H](C)C3)cc12 (as salt: oxalate) [Example 28, (2S)-(−)-3-[(2S,4R)-4-(4-Methoxybenzo[b]thiophen-2-yl)-2-methylpiperidin-1-yl]-1-(2-methylbenzofuran-4-yl)oxy-2-propanol]
92.5 °C (dec.)	COc1cccc2sc([C@H]3CCN(C[C@H](O)COc4cccc5oc(C)cc45)[C@H](C)C3)cc12 (as salt: oxalate) [Example 29, (2S)-(+)-3-[(2R,4S)-4-(4-Methoxybenzo[b]thiophen-2-yl)-2-methylpiperidin-1-yl]-1-(2-methylbenzofuran-4-yl)oxy-2-propanol]
88.5 °C (dec.)	Cc1cc2c(OC[C@@H](O)CN3CC[C@@H](c4cc5cc(Cl)ccc5s4)C[C@H]3C)cccc2o1 (as salt: salt) [Example 30, (2S)-(−)-3-[(2R,4R)-4-(5-Chlorobenzo[b]thiophen-2-yl)-2-methylpiperidin-1-yl]-1-(2-methylbenzofuran-4-yl)oxy-2-propanol]
204.1 to 208.3 °C	Cc1cc2c(OC[C@@H](O)CN3CC[C@H](c4cc5cc(Cl)ccc5s4)C[C@@H]3C)cccc2o1 (as salt: salt) [Example 31, (2S)-3-[(2S,4S)-4-(5-Chlorobenzo[b]thiophen-2-yl)-2-methylpiperidin-1-yl]-1-(2-methylbenzofuran-4-yl)oxy-2-propanol]
78.5 °C (dec.)	Cc1cc2c(OC[C@@H](O)CN3CC[C@@H](c4cc5cc(Cl)ccc5s4)C[C@@H]3C)cccc2o1 (as salt: salt) [Example 32, (2S)-3-[(2S,4R)-4-(5-Chlorobenzo[b]thiophen-2-yl)-2-methylpiperidin-1-yl]-1-(2-methylbenzofuran-4-yl)oxy-2-propanol]
81.4 °C (dec.)	Cc1cc2c(OC[C@@H](O)CN3CC[C@H](c4cc5cc(Cl)ccc5s4)C[C@H]3C)cccc2o1 (as salt: salt) [Example 33, (2S)-(−)-3-[(2R,4S)-4-(5-Chloro-benzo[b]thiophen-2-yl)-2-methylpiperidin-1-yl]-1-(2-methylbenzofuran-4-yl)oxy-2-propanol]
101.1 °C (dec.)	COc1cccc2sc(C3CCN(C[C@H](O)COc4cccc5oc(C)cc45)C(C)(C)C3)cc12 (single isomer, unassigned; isomer 1) (as salt: hydrochloride) [Example 34]
83.5 °C (dec.)	COc1cccc2sc(C3CCN(C[C@H](O)COc4cccc5oc(C)cc45)C(C)(C)C3)cc12 (single isomer, unassigned; isomer 2) (as salt: hydrochloride) [Example 35]
145 to 148 °C	COc1cccc2sc(C3CCN(C[C@H](O)COc4cccc5c4OC(C)(C)C5)[C@@H](C)C3)cc12.O=C(O)C(=O)O (stereo in doubt) [Example 8, (2S)-(+)-1-(2,3-Dihydro-2,2-dimethylbenzofuran-7-yl)oxy-3-[(2S, 4R)-4-(4-methoxybenzo[b]thiophen-2-yl)-2-methylpiperidinyl]-2-propanol Oxalate]
97 to 102 °C (dec.)	COc1ccc2cc([C@@H]3CCN(C[C@H](O)COc4cccc5occc45)[C@H](C)C3)sc2c1.O=C(O)C(=O)O [Example 2, (2S)-(−)-1-(Benzofuran-4-yl)oxy-3-[(2R,4R)-4-(6-methoxybenzo[b]thiophen-2-yl)-2-methylpiperidinyl]-2-propanol Oxalate]
97 to 102 °C	COc1ccc2cc([C@H]3CCN(C[C@H](O)COc4cccc5occc45)[C@@H](C)C3)sc2c1.O=C(O)C(=O)O [Example 3, (2S)-(+)-1-(Benzofuran-4-yl)oxy-3-[(2S.4S)-4-(6-methoxybenzo[b]thiophen-2-yl)-2-methylpiperidinyl]-2-propanol Oxalate]
130 to 133 °C	COc1ccc2cc([C@@H]3CCN(C[C@H](O)COc4cccc5occc45)[C@@H](C)C3)sc2c1.O=C(O)C(=O)O [Example 4, (2S)-1-(Benzofuran-4-yl)oxy-3-[(2S,4R)-4-(6-methoxybenzo[b]thiophen-2-yl)-2-methylpiperidinyl]-2-propanol Oxalate]
196 to 198 °C (dec.)	O=C(O)C(=O)O.O[C@H](COc1cccc2occc12)CN1CCC(c2cc3ccc(F)cc3s2)CC1 [Example 6, (2S)-(+)-1-(Benzofuran-4-yl)oxy-3-[4-(6-fluorobenzo[b]thiophen-2-yl)piperidinyl]-2-propanol Oxalate]
88 to 93 °C	COc1cccc2sc([C@@H]3CCN(C[C@H](O)COc4cccc5c4OC(C)(C)C5)[C@H](C)C3)cc12.O=C(O)C(=O)O [Example 7, (2S)-(−)-1-(2,3-Dihydro-2,2-dimethylbenzofuran-7-yl)oxy-3-[(2R,4R)-4-(4-methoxybenzo[b]thiophen-2-yl)-2-methylpiperidinyl]-2-propanol Oxalate]
83 to 86 °C	COc1cccc2sc([C@@H]3CCN(C[C@H](O)COc4cccc5c4OC(C)(C)C5)[C@@H](C)C3)cc12.O=C(O)C(=O)O [Example 9, (2S)-1-(2,3-Dihydro-2,2-dimethylbenzofuran-7-yl)oxy-3-[(2S,4R)-4-(4-methoxybenzo[b]thiophen-2-yl)-2-methylylpiperidinyl]-2-propanol Oxalate]
93 to 96 °C	COc1cccc2sc([C@H]3CCN(C[C@H](O)COc4cccc5c4OC(C)(C)C5)[C@H](C)C3)cc12.O=C(O)C(=O)O [Example 10, (2S)-1-(2,3-Dihydro-2,2-dimethylbenzofuran-7-yl)oxy-3-[(2R,4S)-4-(4-methoxybenzo[b]thiophen-2-yl)-2-methylpiperidinyl]-2-propanol Oxalate]
